Test results: ChEMBL document CHEMBL3774345, “Synthesis of new diarylamides with pyrimidinyl pyridine scaffold and evaluation of their anti-proliferative effect on cancer cell lines” (Bioorg Med Chem Lett, 2016)

What was measured:
[1] = Cytotoxicity against human SNB75 cells assessed as growth inhibition at 10 uM after 24 hrs by SRB assay; format: functional; conditions: SNB-75, 24 h, read-out: GI
K562 [2] = assay: Cytotoxicity against human K562 cells assessed as cell growth at 10^-7 M after 24 hrs by SRB assay; format: functional; conditions: K562, 24 h, read-out: Activity
NCI-H460 = assay: Cytotoxicity against human NCI-H460 cells assessed as cell growth at 10^-7 M after 24 hrs by SRB assay; format: functional; conditions: NCI-H460, 24 h, read-out: Activity
[3] = Cytotoxicity against human MOLT4 cells assessed as cell growth at 10^-4 M after 24 hrs by SRB assay; format: functional; conditions: MOLT-4, 24 h, read-out: Activity
SK-MEL-5 = assay: Cytotoxicity against human SK-MEL-5 cells assessed as cell growth at 10^-7 M after 24 hrs by SRB assay; format: functional; conditions: SK-MEL-5, 24 h, read-out: Activity
[4] = Cytotoxicity against human UACC257 cells assessed as cell growth at 10^-7 M after 24 hrs by SRB assay; format: functional; conditions: UACC-257, 24 h, read-out: Activity
[5] = Cytotoxicity against human OVCAR5 cells assessed as cell growth at 10^-7 M after 24 hrs by SRB assay; format: functional; conditions: OVCAR-5, 24 h, read-out: Activity
[6] = Cytotoxicity against human COLO205 cells after 24 hrs by SRB assay; format: functional, cell-based; conditions: COLO 205, 24 h
[7] = Cytotoxicity against human HCT15 cells after 24 hrs by SRB assay; format: functional, cell-based; conditions: HCT-15, 24 h
[8] = Cytotoxicity against human SF268 cells after 24 hrs by SRB assay; format: functional; conditions: SF-268, 24 h
U-251 = assay: Cytotoxicity against human U251 cells after 24 hrs by SRB assay; format: functional; conditions: U-251, 24 h
NCI-H322M = assay: Cytotoxicity against human NCI-H322M cells assessed as cell growth at 10^-4 M after 24 hrs by SRB assay; format: functional; conditions: read-out: Activity
NCI-H522 = assay: Cytotoxicity against human NCI-H522 cells assessed as cell growth at 10^-4 M after 24 hrs by SRB assay; format: functional; conditions: NCI-H522, 24 h, read-out: Activity
[9] = Cytotoxicity against human SW620 cells assessed as cell growth at 10^-4 M after 24 hrs by SRB assay; format: functional; conditions: SW-620, 24 h, read-out: Activity
MDA-MB-435 = assay: Cytotoxicity against human MDA-MB-435 cells after 24 hrs by SRB assay; format: functional, cell-based; conditions: MDA-MB-435, 24 h
[10] = Cytotoxicity against human RPMI8226 cells assessed as cell growth at 10^-6 M after 24 hrs by SRB assay; format: functional; conditions: RPMI-8226, 24 h, read-out: Activity
[11] = Cytotoxicity against human OVCAR8 cells assessed as cell growth at 10^-4 M after 24 hrs by SRB assay; format: functional; conditions: OVCAR-8, 24 h, read-out: Activity
[12] = Cytotoxicity against human NCI-ADR-RES cells assessed as cell growth at 10^-4 M after 24 hrs by SRB assay; format: functional; conditions: read-out: Activity
T47D = assay: Cytotoxicity against human T47D cells assessed as cell growth at 10^-4 M after 24 hrs by SRB assay; format: functional; conditions: read-out: Activity
[13] = Cytotoxicity against human Hs 578T cells assessed as cell growth at 10^-6 M after 24 hrs by SRB assay; format: functional; conditions: read-out: Activity
[14] = Cytotoxicity against human OVCAR3 cells after 24 hrs by SRB assay; format: functional; conditions: OVCAR-3, 24 h
[15] = Cytotoxicity against human SKOV3 cells after 24 hrs by SRB assay; format: functional; conditions: SK-OV-3, 24 h
[16] = Cytotoxicity against human Caki1 cells after 24 hrs by SRB assay; format: functional; conditions: CAKI-1, 24 h
K562 [17] = assay: Cytotoxicity against human K562 cells after 24 hrs by SRB assay; format: functional; conditions: K562, 24 h
NCI-H23 = assay: Cytotoxicity against human NCI-H23 cells assessed as cell growth at 10^-8 M after 24 hrs by SRB assay; format: functional; conditions: NCI-H23, 24 h, read-out: Activity
[18] = Cytotoxicity against human COLO205 cells assessed as cell growth at 10^-8 M after 24 hrs by SRB assay; format: functional; conditions: COLO 205, 24 h, read-out: Activity
Malme-3M = assay: Cytotoxicity against human MALME-3M cells assessed as cell growth at 10^-8 M after 24 hrs by SRB assay; format: functional; conditions: read-out: Activity
K562 [19] = assay: Cytotoxicity against human K562 cells assessed as cell growth at 10^-5 M after 24 hrs by SRB assay; format: functional; conditions: K562, 24 h, read-out: Activity
[20] = Cytotoxicity against human COLO205 cells assessed as cell growth at 10^-5 M after 24 hrs by SRB assay; format: functional; conditions: COLO 205, 24 h, read-out: Activity
[21] = Cytotoxicity against human SKOV3 cells assessed as cell growth at 10^-5 M after 24 hrs by SRB assay; format: functional; conditions: SK-OV-3, 24 h, read-out: Activity
[22] = Cytotoxicity against human TK10 cells assessed as cell growth at 10^-5 M after 24 hrs by SRB assay; format: functional; conditions: TK-10, 24 h, read-out: Activity
[23] = Cytotoxicity against human Hs 578T cells assessed as cell growth at 10^-5 M after 24 hrs by SRB assay; format: functional; conditions: read-out: Activity
[24] = read-out: LC50 (the source's name)
[25] = read-out: pLC50 (the source's name) (converted)

Q: With `COCCCNc1nc(NC(=O)c2cc(OC)cc(OC)c2)cc(-c2cccnc2)n1` as the compound, how does the inhibition of growth at 10 µM [1] read?
A: 26.9%

Q: Which growth at 0.1 µM (K562 [2]) does the source give for `O=C(Nc1cc(-c2cccnc2)nc(NCCCN2CCOCC2)n1)c1cc(Br)cc(C(F)(F)F)c1` here?
A: 91%

Q: And the growth at 0.1 µM (NCI-H460)?
A: 100%

Q: And the growth at 100 µM [3]?
A: -67%

Q: And the growth at 0.1 µM (SK-MEL-5)?
A: 95%

Q: What about the growth at 0.1 µM [4] of the same compound?
A: 100%

Q: And the growth at 0.1 µM [5]?
A: 92%

Q: And the GI50 ([6]; read-out: GI50)?
A: 1.77 µM

Q: And the CC50 [6, 24]?
A: 6.79 µM

Q: And the TGI ([6]; read-out: TGI)?
A: 3.47 µM

Q: And the GI50 ([6]; read-out: pGI50 (converted))?
A: 1.78 µM

Q: And the CC50 [6, 25]?
A: 6.76 µM

Q: And the TGI ([6]; read-out: pTGI (converted))?
A: 3.47 µM

Q: And the IC50 [7]?
A: 1.92 µM

Q: And the GI50 ([7]; read-out: GI50)?
A: 1.92 µM

Q: What about the CC50 [7, 24] of the same compound?
A: 19.3 µM

Q: What about the TGI ([7]; read-out: TGI) of the same compound?
A: 5.28 µM

Q: And the GI50 ([7]; read-out: pGI50 (converted))?
A: 1.91 µM

Q: And the CC50 [7, 25]?
A: 19.5 µM

Q: And the TGI ([7]; read-out: pTGI)?
A: 5.25 µM

Q: And the GI50 ([8]; read-out: GI50)?
A: 2.63 µM

Q: What about the CC50 [8, 24] of the same compound?
A: 37.8 µM

Q: And the TGI ([8]; read-out: TGI)?
A: 10.4 µM

Q: And the GI50 ([8]; read-out: pGI50 (converted))?
A: 2.63 µM

Q: And the CC50 [8, 25]?
A: 38 µM

Q: What about the TGI ([8]; read-out: pTGI (converted)) of the same compound?
A: 10.5 µM

Q: What about the GI50 (U-251; read-out: GI50) of the same compound?
A: 2.05 µM

Q: What about the CC50 (U-251; [24]) of the same compound?
A: 9.04 µM

Q: What about the TGI (U-251; read-out: TGI) of the same compound?
A: 4.3 µM

Q: What about the GI50 (U-251; read-out: pGI50 (converted)) of the same compound?
A: 2.04 µM

Q: What about the CC50 (U-251; [25]) of the same compound?
A: 9.12 µM

Q: What about the TGI (U-251; read-out: pTGI (converted)) of the same compound?
A: 4.27 µM

Q: And the growth at 100 µM (NCI-H322M)?
A: -90%

Q: And the growth at 100 µM (NCI-H522)?
A: -82%

Q: What about the growth at 100 µM [9] of the same compound?
A: -87%

Q: And the IC50 (MDA-MB-435)?
A: 1.66 µM

Q: And the GI50 (MDA-MB-435; read-out: GI50)?
A: 1.66 µM

Q: What about the CC50 (MDA-MB-435; [24]) of the same compound?
A: 5.98 µM

Q: And the TGI (MDA-MB-435; read-out: TGI)?
A: 3.15 µM

Q: What about the GI50 (MDA-MB-435; read-out: pGI50 (converted)) of the same compound?
A: 1.66 µM

Q: And the CC50 (MDA-MB-435; [25])?
A: 6.03 µM

Q: What about the TGI (MDA-MB-435; read-out: pTGI (converted)) of the same compound?
A: 3.16 µM

Q: What about the growth at 1 µM [10] of the same compound?
A: 101%

Q: And the growth at 100 µM [11]?
A: -79%

Q: What about the growth at 100 µM [12] of the same compound?
A: -77%

Q: What about the growth at 100 µM (T47D) of the same compound?
A: -83%

Q: And the growth at 1 µM [13]?
A: 94%

Q: What about the GI50 ([14]; read-out: GI50) of the same compound?
A: 3.7 µM

Q: And the CC50 [14, 24]?
A: 35.8 µM

Q: What about the TGI ([14]; read-out: TGI) of the same compound?
A: 12.8 µM

Q: What about the GI50 ([14]; read-out: pGI50 (converted)) of the same compound?
A: 3.72 µM

Q: And the CC50 [14, 25]?
A: 35.5 µM

Q: And the TGI ([14]; read-out: pTGI (converted))?
A: 12.9 µM

Q: What about the GI50 ([15]; read-out: GI50) of the same compound?
A: 7.26 µM

Q: And the CC50 [15, 24]?
A: 44.9 µM

Q: What about the TGI ([15]; read-out: TGI) of the same compound?
A: 19.9 µM

Q: And the GI50 ([15]; read-out: pGI50 (converted))?
A: 7.24 µM

Q: And the CC50 [15, 25]?
A: 44.7 µM

Q: And the TGI ([15]; read-out: pTGI (converted))?
A: 20 µM

Q: And the GI50 ([16]; read-out: GI50)?
A: 2.53 µM

Q: What about the CC50 [16, 24] of the same compound?
A: 32.8 µM

Q: What about the TGI ([16]; read-out: TGI) of the same compound?
A: 10.7 µM

Q: What about the GI50 ([16]; read-out: pGI50 (converted)) of the same compound?
A: 2.51 µM

Q: And the CC50 [16, 25]?
A: 33.1 µM

Q: And the TGI ([16]; read-out: pTGI (converted))?
A: 10.7 µM

Q: And the GI50 (K562 [17]; read-out: GI50)?
A: 2.81 µM

Q: What about the CC50 (K562 [17]; [24]) of the same compound?
A: > 100 µM

Q: And the TGI (K562 [17]; read-out: TGI)?
A: 21.7 µM

Q: And the GI50 (K562 [17]; read-out: pGI50 (converted))?
A: 2.82 µM

Q: And the CC50 (K562 [17]; [25])?
A: > 100 µM

Q: And the TGI (K562 [17]; read-out: pTGI (converted))?
A: 21.9 µM

Q: What about the growth at 0.01 µM (NCI-H23) of the same compound?
A: 98%

Q: What about the growth at 0.01 µM [18] of the same compound?
A: 104%

Q: And the growth at 0.01 µM (Malme-3M)?
A: 99%

Q: What about the growth at 10 µM (K562 [19]) of the same compound?
A: 4%

Q: What about the growth at 10 µM [20] of the same compound?
A: -79%

Q: What about the growth at 10 µM [21] of the same compound?
A: 42%

Q: What about the growth at 10 µM [22] of the same compound?
A: 34%

Q: And the growth at 10 µM [23]?
A: -7%
